Reference: patent US11970450B2, “Multi-component crystals of an orally available HIF prolyl hydroxylase inhibitor” (Sandoz AG, priority 2018, dated 2024)
Where two headings read alike, the source gives them in different places.

Tests used:
[1] = cited from earlier work
[2] = Thermal stability by differential scanning calorimetry (DSC); format: physicochemical; conditions: for DSC: thermal events / phase transformations before melting / Thermal stability: 25 to 250° C. at 10 K/min; for DSC: thermal events / phase transformations before melting: nitrogen purge; for Physically stable toward temperature stress: no thermal events in DSC until start to melt at: DSC 10 K/min; for Thermal stability: Table 7 summary, temperature stress, DSC and TGA
Method: DSC was performed on a Mettler Polymer DSC R instrument. […] Nitrogen (purge rate 50 mL/min) was used as purge gas.

[3] = Thermogravimetric analysis (TGA) mass loss on heating; format: physicochemical; conditions: 10 K/min
Method: TGA was performed on a Mettler TGA/DSC 1 instrument. The samples (9.53 mg Form 1 and 8.16 mg Form 2, 8.12 mg 1,4-dioxane solvate) were heated in a 100 microliter aluminum pan closed with an aluminum lid. The lid was automatically pierced at the beginning of the measurement. The samples were heated from 25 to 250° C. at a rate of 10 K/min. Nitrogen (purge rate 50 mL/min) was used as purge gas.
Also, no significant mass loss is visible in the TGA curves of Form 1 and Form 2 until they melt.

[4] = up to a temperature of about 170° C.

O=C(O)CNC(=O)c1ncc(-c2cccc(Cl)c2)cc1O [Vadadustat hydrate]
Thermal stability ([1]; Table 7 summary, hydrate of WO 2018/108101 A1, temperature stress): dehydration below 100 °C
Physical stability upon temperature stress ([1]; background statement on hydrate CS2 of WO 2018/108101 A1): physically unstable upon temperature stress

O=C(O)CNC(=O)c1ncc(-c2cccc(Cl)c2)cc1O [Vadadustat L-proline form 2, vadadustat L-proline]
DSC: thermal events / phase transformations before melting ([2]; listed as vadadustat L-proline form 2): undergoes no phase transformations but is stable until it melts
Physically stable toward temperature stress: no thermal events in DSC until start to melt at ([2]; listed as Form 2): ~178 °C
TGA mass loss ([3]; up to a temperature of about 180° C.): about 0.15 weight %

C1COCCO1.O=C(O)CNC(=O)c1ncc(-c2cccc(Cl)c2)cc1O [Vadadustat 1,4-dioxane solvate, reference compound]
DSC onset of first broad endothermic peak (release of 1,4-dioxane from the crystal structure) ([2]; 10 K/min): about 78 °C
Thermal stability [2]: desolvation below 100 °C
Temperature at which TGA mass loss starts [3]: about 40 °C
TGA mass loss [3, 4]: about 19 weight %

O=C(O)CNC(=O)c1ncc(-c2cccc(Cl)c2)cc1O [Vadadustat L-proline form 1, vadadustat L-proline]
DSC: thermal events / phase transformations before melting ([2]; listed as vadadustat L-proline form 1): undergoes no desolvation or phase transformations but is stable until it melts
Physically stable toward temperature stress: no thermal events in DSC until start to melt at ([2]; listed as Form 1): about 170 °C
Thermal stability [2]: physically stable until melting at
TGA mass loss [3, 4]: about 0.20 weight %
